Source: US20200216416A1, “QUINOLINE COMPOUNDS AS INHIBITORS OF TAM AND MET KINASES” (Array BioPharma Inc., priority 2019, published 2020)

What was measured:
human MET kinase L1195V = target: T1, human MET kinase L1195V (Homo sapiens, UniProt P08581, L1195V); test: c-Met Enzyme Assay, L1195V mutant; format: binding; details: averaged IC50; L1195V 10 nM; 60-minute incubation at 22° C.
T1 construct: GST-tagged recombinant human MET kinase domain; purchased Signal Chem
How it was run: (§1)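 LanthaScreen Eu TR-FRET binding: GST-tagged recombinant MET kinase domain incubated with compound, 50 nM Alexa-Fluor Tracer 236 and 2 nM Eu-anti-GST in 25 mM HEPES pH 7.4, 10 mM MgCl2, 1 mM DTT, 2% DMSO, 60 min at 22 °C. Ratiometric emission gave percent of control; IC50 from 4-parameter fit at 50 POC.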

human MET kinase F1200I = target: T2, human MET kinase F1200I (Homo sapiens, UniProt P08581, F1200I); test: c-Met Enzyme Assay, F1200I mutant; format: binding; details: averaged IC50; F1200I 2 nM; 60-minute incubation at 22° C.
T2 construct: GST-tagged recombinant human MET kinase domain; purchased Signal Chem
T2 sequence (P08581 1078-1345 F1200I limits assumed): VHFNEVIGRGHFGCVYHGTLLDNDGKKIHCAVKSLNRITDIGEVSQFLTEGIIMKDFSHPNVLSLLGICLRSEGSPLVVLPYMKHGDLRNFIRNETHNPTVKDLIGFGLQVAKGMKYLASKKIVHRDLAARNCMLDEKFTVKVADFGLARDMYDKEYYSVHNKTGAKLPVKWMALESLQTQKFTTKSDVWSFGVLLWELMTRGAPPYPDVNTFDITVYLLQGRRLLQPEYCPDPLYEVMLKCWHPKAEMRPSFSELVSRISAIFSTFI
How it was run: as §1

[1] = target: T3, GST-tagged recombinant human TYRO3 kinase domain (Homo sapiens, UniProt Q06418); test: TYRO3 Enzyme Assay (LanthaScreen Eu Kinase Binding); details: averaged IC50; TYRO3 5 nM; 60-minute incubation at 22° C.; TR-FRET
T3 construct: GST-tagged recombinant human TYRO3 kinase domain; purchased Carna PR7480A
T3 sequence (Q06418 518-790 limits assumed): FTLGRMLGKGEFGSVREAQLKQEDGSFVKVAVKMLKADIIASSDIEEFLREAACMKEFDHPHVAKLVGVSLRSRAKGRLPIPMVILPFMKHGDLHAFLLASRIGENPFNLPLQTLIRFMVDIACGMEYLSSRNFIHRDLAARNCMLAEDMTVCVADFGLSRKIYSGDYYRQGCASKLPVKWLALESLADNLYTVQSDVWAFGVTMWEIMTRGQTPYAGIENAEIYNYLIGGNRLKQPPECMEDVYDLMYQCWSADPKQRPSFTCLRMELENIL
How it was run: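 Competitive tracer-displacement TR-FRET: 5 nM kinase, 20 nM Alexa-Fluor Tracer 236 and 2 nM Eu-anti-GST with threefold-diluted compound in 25 mM HEPES pH 7.4, 10 mM MgCl2, 0.01% Triton X-100, 2% DMSO, 60 min at 22° C. Ratiometric percent of control fitted to a 4-parameter logistic; IC50 at 50 POC.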

human MET kinase D1228N = target: T4, human MET kinase D1228N (Homo sapiens, UniProt P08581, D1228N); test: c-Met Enzyme Assay, D1228N mutant; format: binding; details: averaged IC50; D1228N 2 nM; 60-minute incubation at 22° C.; read-out: D1228 N IC50
T4 construct: GST-tagged recombinant human MET kinase domain; purchased Signal Chem
T4 sequence (P08581 1078-1345 D1228N): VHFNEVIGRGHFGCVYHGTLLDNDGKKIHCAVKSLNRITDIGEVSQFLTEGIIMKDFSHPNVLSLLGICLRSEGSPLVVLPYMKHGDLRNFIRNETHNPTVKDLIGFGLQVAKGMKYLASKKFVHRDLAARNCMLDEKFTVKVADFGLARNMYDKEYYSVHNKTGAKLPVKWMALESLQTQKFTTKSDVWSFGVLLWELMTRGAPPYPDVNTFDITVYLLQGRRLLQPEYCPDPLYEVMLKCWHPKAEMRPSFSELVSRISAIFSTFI
How it was run: as §1

T1 sequence (P08581 1078-1345 L1195V limits assumed): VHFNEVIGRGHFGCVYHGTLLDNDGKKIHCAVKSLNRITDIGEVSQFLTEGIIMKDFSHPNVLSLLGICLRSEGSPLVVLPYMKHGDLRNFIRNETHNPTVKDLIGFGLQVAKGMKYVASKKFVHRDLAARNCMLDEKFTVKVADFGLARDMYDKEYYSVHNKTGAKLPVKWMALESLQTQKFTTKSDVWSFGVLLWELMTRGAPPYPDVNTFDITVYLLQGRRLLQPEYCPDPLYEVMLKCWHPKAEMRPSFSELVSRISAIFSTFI

| Structure (SMILES) | IC50 (human MET kinase L1195V) [nM] | IC50 (human MET kinase F1200I) [nM] | IC50 [1] [nM] | IC50 (human MET kinase D1228N) [nM] |
| --- | --- | --- | --- | --- |
| COc1cc2nccc(Oc3ccc(NC(=O)c4cn(C(C)C)cc(-c5ccc(Cl)cc5)c4=O)nc3)c2cc1OC [Example 5, 5-(4-chlorophenyl)-N-(5-((6,7-dimethoxyquinolin-4-yl)oxy)pyridin-2-yl)-1-isopropyl-4-oxo-1,4-dihydropyridine-3-carboxamide] | 9.8 | 5.7 | 12 | 16.1 |
| COc1cc2nccc(Oc3ccc(NC(=O)c4cn(CC(C)(C)O)cc(-c5ccc(F)cc5)c4=O)nc3)c2cc1OC [Example 9, N-(5-((6,7-dimethoxyquinolin-4-yl)oxy)pyridin-2-yl)-5-(4-fluorophenyl)-1-(2-hydroxy-2-methylpropyl)-4-oxo-1,4-dihydropyridine-3-carboxamide] | 47.7 | 6.4 | 13 | 15.8 |
| COc1cc2nccc(Oc3ccc(NC(=O)c4cn(C(C)C)cc(-c5ccc(F)c(F)c5)c4=O)nc3)c2cc1OC [Example 6] | 62.1 | 8.1 | 11 | 24.2 |
| COc1cc2nccc(Oc3ccc(NC(=O)c4cn(CC(=O)N(C)C)cc(-c5ccc(F)cc5)c4=O)nc3)c2cc1OC [Example 23, N-(5-((6,7-dimethoxyquinolin-4yl)oxy)pyridin-2-yl)-1-(2-(dimethylamino)-2-oxoethyl)-5-(4-fluorophenyl)-4-oxo-1,4-dihydropyridine-3-carboxamide] | 39.6 | 4.3 | 14 | 13.5 |
